How the values were obtained:
Experiment in all cases: NCI-60 single-dose screen
Type in all cases: cell-based
[1] = system: 786-0; conditions: Homo sapiens, single dose 10 µM, '-' = no inhibition, read-out: % Growth Inhibition
Method in brief: (§1)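 Single concentration (10 μM) per compound, assayed by the NCI DTP against its 60-line panel covering leukemia, lung, colon, CNS, melanoma, ovarian, renal, prostate and breast cancers.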

[2] = system: A498; conditions: Homo sapiens, single dose 10 µM, '-' = no inhibition, read-out: % Growth Inhibition
Method in brief: as §1

[3] = system: A549/ATCC; conditions: Homo sapiens, single dose 10 µM, '-' = no inhibition, read-out: % Growth Inhibition
Method in brief: as §1

[4] = system: ACHN 1; conditions: Homo sapiens, single dose 10 µM, '-' = no inhibition, read-out: % Growth Inhibition
Method in brief: as §1

[5] = system: BT-549; conditions: Homo sapiens, single dose 10 µM, '-' = no inhibition, read-out: % Growth Inhibition
Method in brief: as §1

[6] = system: CCRF-CEM; conditions: Homo sapiens, single dose 10 µM, '-' = no inhibition, read-out: % Growth Inhibition
Method in brief: as §1

[7] = system: COLO 205; conditions: Homo sapiens, single dose 10 µM, '-' = no inhibition, read-out: % Growth Inhibition
Method in brief: as §1

[8] = system: DU-145; conditions: Homo sapiens, single dose 10 µM, '-' = no inhibition, read-out: % Growth Inhibition
Method in brief: as §1

[9] = system: EKVX; conditions: Homo sapiens, single dose 10 µM, '-' = no inhibition, read-out: % Growth Inhibition
Method in brief: as §1

[10] = system: HCC-2998; conditions: Homo sapiens, single dose 10 µM, '-' = no inhibition, read-out: % Growth Inhibition
Method in brief: as §1

[11] = system: HCT-116; conditions: Homo sapiens, single dose 10 µM, '-' = no inhibition, read-out: % Growth Inhibition
Method in brief: as §1

[12] = system: HL-60(TB); conditions: Homo sapiens, single dose 10 µM, '-' = no inhibition, read-out: % Growth Inhibition
[13] = system: HOP-62; conditions: Homo sapiens, single dose 10 µM, '-' = no inhibition, read-out: % Growth Inhibition
Method in brief: as §1

[14] = system: HOP-92; conditions: Homo sapiens, single dose 10 µM, '-' = no inhibition, read-out: % Growth Inhibition
Method in brief: as §1

[15] = system: HS 578T; conditions: Homo sapiens, single dose 10 µM, '-' = no inhibition, read-out: % Growth Inhibition
Method in brief: as §1

[16] = system: HT29; conditions: Homo sapiens, HT-29, single dose 10 µM, '-' = no inhibition, read-out: % Growth Inhibition
Method in brief: as §1

[17] = system: IGROV1; conditions: Homo sapiens, IGROV-1, single dose 10 µM, '-' = no inhibition, read-out: % Growth Inhibition
Method in brief: as §1

[18] = system: K-562; conditions: Homo sapiens, K562, single dose 10 µM, '-' = no inhibition, read-out: % Growth Inhibition
Method in brief: as §1

[19] = system: KM12; conditions: Homo sapiens, single dose 10 µM, '-' = no inhibition, read-out: % Growth Inhibition
Method in brief: as §1

[20] = system: M14; conditions: Homo sapiens, single dose 10 µM, '-' = no inhibition, read-out: % Growth Inhibition
Method in brief: as §1

[21] = system: MALME-3M; conditions: Homo sapiens, single dose 10 µM, '-' = no inhibition, read-out: % Growth Inhibition
Method in brief: as §1

[22] = system: MCF7; conditions: Homo sapiens, single dose 10 µM, '-' = no inhibition, read-out: % Growth Inhibition
Method in brief: as §1

[23] = system: MDA-MB-435; conditions: Homo sapiens, single dose 10 µM, '-' = no inhibition, read-out: % Growth Inhibition
Method in brief: as §1

[24] = system: MDA-MB-468; conditions: Homo sapiens, single dose 10 µM, '-' = no inhibition, read-out: % Growth Inhibition
Method in brief: as §1

[25] = system: NCI-H23; conditions: Homo sapiens, single dose 10 µM, '-' = no inhibition, read-out: % Growth Inhibition
Method in brief: as §1

[26] = system: NCI-H322M; conditions: Homo sapiens, single dose 10 µM, '-' = no inhibition, read-out: % Growth Inhibition
Method in brief: as §1

[27] = system: NCI-H460; conditions: Homo sapiens, single dose 10 µM, '-' = no inhibition, read-out: % Growth Inhibition
Method in brief: as §1

[28] = system: OVCAR-4; conditions: Homo sapiens, single dose 10 µM, '-' = no inhibition, read-out: % Growth Inhibition
Method in brief: as §1

[29] = system: OVCAR-5; conditions: Homo sapiens, single dose 10 µM, '-' = no inhibition, read-out: % Growth Inhibition
Method in brief: as §1

[30] = system: OVCAR-8; conditions: Homo sapiens, single dose 10 µM, '-' = no inhibition, read-out: % Growth Inhibition
Method in brief: as §1

[31] = system: PC-3; conditions: Homo sapiens, single dose 10 µM, '-' = no inhibition, read-out: % Growth Inhibition
Method in brief: as §1

[32] = system: RPMI-8226; conditions: Homo sapiens, single dose 10 µM, '-' = no inhibition, read-out: % Growth Inhibition
Method in brief: as §1

[33] = system: RXF 393; conditions: Homo sapiens, single dose 10 µM, '-' = no inhibition, read-out: % Growth Inhibition
Method in brief: as §1

[34] = system: SF-268; conditions: Homo sapiens, single dose 10 µM, '-' = no inhibition, read-out: % Growth Inhibition
Method in brief: as §1

[35] = system: SF-295; conditions: Homo sapiens, single dose 10 µM, '-' = no inhibition, read-out: % Growth Inhibition
Method in brief: as §1

[36] = system: SF-539; conditions: Homo sapiens, single dose 10 µM, '-' = no inhibition, read-out: % Growth Inhibition
Method in brief: as §1

[37] = system: SK-MEL-28; conditions: Homo sapiens, single dose 10 µM, '-' = no inhibition, read-out: % Growth Inhibition
Method in brief: as §1

[38] = system: SK-MEL-2; conditions: Homo sapiens, single dose 10 µM, '-' = no inhibition, read-out: % Growth Inhibition
Method in brief: as §1

[39] = system: SK-MEL-5; conditions: Homo sapiens, single dose 10 µM, '-' = no inhibition, read-out: % Growth Inhibition
Method in brief: as §1

[40] = system: SK-OV-3; conditions: Homo sapiens, single dose 10 µM, '-' = no inhibition, read-out: % Growth Inhibition
Method in brief: as §1

[41] = system: SN12C; conditions: Homo sapiens, single dose 10 µM, '-' = no inhibition, read-out: % Growth Inhibition
Method in brief: as §1

[42] = system: SNB-75; conditions: Homo sapiens, single dose 10 µM, '-' = no inhibition, read-out: % Growth Inhibition
Method in brief: as §1

[43] = system: SR; conditions: Homo sapiens, single dose 10 µM, '-' = no inhibition, read-out: % Growth Inhibition
Method in brief: as §1

[44] = system: SW-620; conditions: Homo sapiens, single dose 10 µM, '-' = no inhibition, read-out: % Growth Inhibition
Method in brief: as §1

[45] = system: T-47D; conditions: Homo sapiens, T47D, single dose 10 µM, '-' = no inhibition, read-out: % Growth Inhibition
Method in brief: as §1

[46] = system: TK-10; conditions: Homo sapiens, single dose 10 µM, '-' = no inhibition, read-out: % Growth Inhibition
Method in brief: as §1

[47] = system: U251; conditions: Homo sapiens, U-251, single dose 10 µM, '-' = no inhibition, read-out: % Growth Inhibition
Method in brief: as §1

[48] = system: UACC-257; conditions: Homo sapiens, single dose 10 µM, '-' = no inhibition, read-out: % Growth Inhibition
Method in brief: as §1

## C=CCSc1nc(-c2ccc(Cl)cc2)cc(-c2ccc(OC)c(OC)c2)n1 [Compound 27, 2-(Allylthio)-4-(4-chlorophenyl)-6-(3,4-dimethoxyphenyl)pyrimidine]
[1]
  inhibition at 10 µM: 2.53%
[2]
  inhibition at 10 µM: < 0%
[3]
  inhibition at 10 µM: 12.3%
[4]
  inhibition at 10 µM: 6.5%
[5]
  inhibition at 10 µM: 3.91%
[6]
  inhibition at 10 µM: 13.1%
[7]
  inhibition at 10 µM: < 0%
[8]
  inhibition at 10 µM: 2.02%
[9]
  inhibition at 10 µM: 12.2%
[10]
  inhibition at 10 µM: < 0%
[11]
  inhibition at 10 µM: 21.8%
[12]
  inhibition at 10 µM: 29.2%
[13]
  inhibition at 10 µM: < 0%
[14]
  inhibition at 10 µM: 10.6%
[15]
  inhibition at 10 µM: < 0%
[16]
  inhibition at 10 µM: 22.6%
[17]
  inhibition at 10 µM: < 0%
[18]
  inhibition at 10 µM: 42%
[19]
  inhibition at 10 µM: 3.43%
[20]
  inhibition at 10 µM: 0.06%
[21]
  inhibition at 10 µM: < 0%
[22]
  inhibition at 10 µM: 17.9%
[23]
  inhibition at 10 µM: 6.35%
[24]
  inhibition at 10 µM: 23.7%
[25]
  inhibition at 10 µM: 7.78%
[26]
  inhibition at 10 µM: < 0%
[27]
  inhibition at 10 µM: 6.7%
[28]
  inhibition at 10 µM: 10.3%
[29]
  inhibition at 10 µM: < 0%
[30]
  inhibition at 10 µM: 7.89%
[31]
  inhibition at 10 µM: 15.7%
[32]
  inhibition at 10 µM: 14.3%
[33]
  inhibition at 10 µM: 3.07%
[34]
  inhibition at 10 µM: < 0%
[35]
  inhibition at 10 µM: 3%
[36]
  inhibition at 10 µM: < 0%
[37]
  inhibition at 10 µM: < 0%
[38]
  inhibition at 10 µM: 0.52%
[39]
  inhibition at 10 µM: 12.2%
[40]
  inhibition at 10 µM: < 0%
[41]
  inhibition at 10 µM: 14.3%
[42]
  inhibition at 10 µM: < 0%
[43]
  inhibition at 10 µM: 30.3%
[44]
  inhibition at 10 µM: 1.7%
[45]
  inhibition at 10 µM: 23.1%
[46]
  inhibition at 10 µM: < 0%
[47]
  inhibition at 10 µM: < 0%
[48]
  inhibition at 10 µM: < 0%
